# pKi: −log10 of the molar value.
# Target: T1, xanthine oxidase (XO) (Bos taurus, UniProt P80457)
# T1 construct: gene XDH
# Assay: xanthine oxidase inhibition assay with Lineweaver-Burk kinetics (IC50 […]; KI […])
# Type: biochemical
# T1 sequence (P80457 2-1332): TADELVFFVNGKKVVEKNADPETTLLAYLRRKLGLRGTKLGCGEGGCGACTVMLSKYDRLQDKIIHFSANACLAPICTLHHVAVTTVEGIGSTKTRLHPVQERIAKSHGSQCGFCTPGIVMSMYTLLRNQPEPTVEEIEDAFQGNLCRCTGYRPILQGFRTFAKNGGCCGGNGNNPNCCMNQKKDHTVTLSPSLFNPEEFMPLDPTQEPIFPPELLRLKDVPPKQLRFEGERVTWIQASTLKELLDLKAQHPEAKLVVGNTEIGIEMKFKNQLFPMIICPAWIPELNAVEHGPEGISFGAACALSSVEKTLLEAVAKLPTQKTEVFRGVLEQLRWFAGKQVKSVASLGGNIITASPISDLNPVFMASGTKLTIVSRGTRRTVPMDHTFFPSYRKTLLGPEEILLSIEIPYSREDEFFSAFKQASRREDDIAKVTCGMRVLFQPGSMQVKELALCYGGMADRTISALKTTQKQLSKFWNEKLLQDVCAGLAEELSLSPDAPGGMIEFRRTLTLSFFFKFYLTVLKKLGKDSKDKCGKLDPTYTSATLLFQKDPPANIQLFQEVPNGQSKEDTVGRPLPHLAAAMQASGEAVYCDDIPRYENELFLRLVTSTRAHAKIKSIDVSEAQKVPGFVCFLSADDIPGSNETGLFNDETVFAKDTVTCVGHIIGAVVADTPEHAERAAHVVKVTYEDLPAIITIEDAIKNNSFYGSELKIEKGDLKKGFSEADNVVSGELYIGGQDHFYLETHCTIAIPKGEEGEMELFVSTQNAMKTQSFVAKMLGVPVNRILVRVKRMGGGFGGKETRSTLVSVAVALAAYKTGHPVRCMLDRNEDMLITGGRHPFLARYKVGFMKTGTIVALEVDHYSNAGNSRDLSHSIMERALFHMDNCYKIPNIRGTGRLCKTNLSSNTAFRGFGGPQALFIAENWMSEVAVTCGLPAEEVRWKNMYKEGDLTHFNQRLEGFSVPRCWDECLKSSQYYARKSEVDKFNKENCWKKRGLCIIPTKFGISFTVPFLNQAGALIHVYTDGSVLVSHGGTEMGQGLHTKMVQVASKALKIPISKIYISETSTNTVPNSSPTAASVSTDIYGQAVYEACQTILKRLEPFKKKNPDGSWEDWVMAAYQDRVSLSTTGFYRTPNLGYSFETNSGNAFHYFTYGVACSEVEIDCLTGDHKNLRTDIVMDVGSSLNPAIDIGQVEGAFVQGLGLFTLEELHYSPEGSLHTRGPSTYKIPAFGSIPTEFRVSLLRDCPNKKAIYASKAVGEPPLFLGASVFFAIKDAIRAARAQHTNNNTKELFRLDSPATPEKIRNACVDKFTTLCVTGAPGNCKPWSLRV
compound,measurement,value
COc1cc(-c2cc(=O)c3c(O)cc(O)cc3o2)cc(OC)c1O [tricin],pKi,6.33
